Assay results published in PMC7996082, “The translocator protein ligands as mitochondrial functional modulators for the potential anti-Alzheimer agents” (Journal of Enzyme Inhibition and Medicinal Chemistry, 2021).

Columns and labels:
[1] = MTT assay: HT22 cell viability with compound alone; type: cell-based, mouse; conditions: mouse, HT22 cells; HT22 cell viability after 24 h of treatment with 5 μM compound, no Aβ
Outline: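 HT22 cells were seeded at 5,000 per well 24 h before exposure to test compound solution (5 µM) for 24 h at 37 °C. MTT was added for 2 h at 37 °C, then 10% Triton X-100/isopropanol/0.1 M HCl for 2 h, with OD read at 560 nm. Viability was normalised to vehicle (5 µM DMSO) as […].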

[2] = Liver microsomal stability; type: in vitro ADME; conditions: human, liver microsomes, 1 µM compound, 0.5 mg/mL microsomes, 30 min, 37 °C; read-out: Human Liver Microsomal Stability (% remaining after 30 min)
Description: Liver microsomes (human, dog, rat, and mouse; 0.5 mg/mL) were incubated with 1 µM of each test compound in the presence of potassium phosphate buffer (PPB) for 5 min at 37 °C. A solution of the NADPH regeneration system (#44332000, Oriental Yeast Co., Japan) was added to begin metabolic reactions of liver microsomes. The resulting mixtures were incubated for 30 min at 37 °C, and the reaction was terminated by the addition of a cold MeCN solution containing an internal standard (chlorpropamide). The mixture was separated by centrifugation (14,000 rpm for 5 min at 4 °C), and the supernatant was analysed by LC-MS/MS (Shimadzu Nexera XR system and TSQ vantage; Thermo Scientific).

CYP1A2 = biological target: T1, CYP1A2 (Homo sapiens, UniProt P05177); assay: CYP inhibition assay (Vivid CYP450 screening kit); type: in vitro ADME; conditions: 10 μM compound
T1 construct: purchased Invitrogen, Madison, WI, USA
T1 sequence (P05177 2-516 limits assumed): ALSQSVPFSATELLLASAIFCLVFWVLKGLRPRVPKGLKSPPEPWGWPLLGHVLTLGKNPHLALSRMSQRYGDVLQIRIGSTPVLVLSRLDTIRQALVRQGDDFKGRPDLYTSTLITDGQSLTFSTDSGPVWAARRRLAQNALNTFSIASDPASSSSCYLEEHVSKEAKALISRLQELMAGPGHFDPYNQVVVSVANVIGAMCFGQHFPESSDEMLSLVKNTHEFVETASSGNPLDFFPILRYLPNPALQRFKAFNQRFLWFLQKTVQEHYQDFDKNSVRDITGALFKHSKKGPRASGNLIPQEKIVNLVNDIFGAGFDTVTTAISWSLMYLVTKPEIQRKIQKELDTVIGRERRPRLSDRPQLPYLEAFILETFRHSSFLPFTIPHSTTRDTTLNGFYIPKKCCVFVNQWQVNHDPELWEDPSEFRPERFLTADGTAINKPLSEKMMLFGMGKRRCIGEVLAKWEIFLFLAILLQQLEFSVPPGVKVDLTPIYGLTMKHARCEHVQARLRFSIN
Description: (§1) Human CYP450 (CYP1A2, 2D6, 2C9, 2C19, and 3A4) activities were determined by using the Vivid® CYP450 screening kit (Invitrogen, Madison, WI, USA) in a clear 96-well plate. Five positive controls were used as 10 mM solutions in MeCN for five different CYP450 enzymes: CYP1A2 (α-naphthoflavone), CYP2D6 (quinidine), CYP2C9 (sulfaphenazole), CYP2C19 (lansoprazole), and CYP3A4 (ketoconazole). Each sample (test compounds, positive inhibition controls, and solvent controls) was added into each well with the Master Pre-Mix [CYP450 BACULOSOMES® Reagent (recombinant human CYP450 isozyme and rabbit NADPHP450 reductase) and Regeneration System (3.3 mM glucose-6-phosphate and 0.3 U/ml glucose-6-phosphate dehydrogenase in 100 mM potassium phosphate, pH 8.0)]. The mixture was incubated for 5 min at 37 °C, and the Vivid® CYP substrates and 0.1 mM NADP^+ buffer were added to initiate the CYP450 enzyme reaction. The % remaining activities of CYP450 were measured after 20 min by using a fluorescent plate reader (Flexstation® 3, Molecular Devices, USA).

CYP2D6 = biological target: T2, CYP2D6 (Homo sapiens, UniProt P10635); assay: CYP inhibition assay (Vivid CYP450 screening kit); type: in vitro ADME; conditions: 10 μM compound
T2 construct: purchased Invitrogen, Madison, WI, USA
T2 sequence (P10635 whole entry): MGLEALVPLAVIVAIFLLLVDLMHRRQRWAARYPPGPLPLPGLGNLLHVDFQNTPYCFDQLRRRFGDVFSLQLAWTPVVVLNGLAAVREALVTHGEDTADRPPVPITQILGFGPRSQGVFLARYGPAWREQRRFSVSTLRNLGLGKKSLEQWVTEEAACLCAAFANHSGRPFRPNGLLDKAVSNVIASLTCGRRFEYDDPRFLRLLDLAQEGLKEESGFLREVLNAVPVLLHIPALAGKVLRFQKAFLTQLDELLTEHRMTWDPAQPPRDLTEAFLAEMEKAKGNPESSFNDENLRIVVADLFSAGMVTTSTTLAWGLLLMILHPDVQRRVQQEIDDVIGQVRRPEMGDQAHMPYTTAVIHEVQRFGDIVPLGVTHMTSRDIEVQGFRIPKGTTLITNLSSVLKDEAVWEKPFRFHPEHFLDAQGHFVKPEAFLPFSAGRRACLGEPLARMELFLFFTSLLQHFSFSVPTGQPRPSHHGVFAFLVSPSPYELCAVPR
Description: as §1

CYP3A4 = biological target: T3, CYP3A4 (Homo sapiens, UniProt P08684); assay: CYP inhibition assay (Vivid CYP450 screening kit); type: in vitro ADME; conditions: 10 μM compound
T3 construct: purchased Invitrogen, Madison, WI, USA
T3 sequence (P08684 2-503 limits assumed): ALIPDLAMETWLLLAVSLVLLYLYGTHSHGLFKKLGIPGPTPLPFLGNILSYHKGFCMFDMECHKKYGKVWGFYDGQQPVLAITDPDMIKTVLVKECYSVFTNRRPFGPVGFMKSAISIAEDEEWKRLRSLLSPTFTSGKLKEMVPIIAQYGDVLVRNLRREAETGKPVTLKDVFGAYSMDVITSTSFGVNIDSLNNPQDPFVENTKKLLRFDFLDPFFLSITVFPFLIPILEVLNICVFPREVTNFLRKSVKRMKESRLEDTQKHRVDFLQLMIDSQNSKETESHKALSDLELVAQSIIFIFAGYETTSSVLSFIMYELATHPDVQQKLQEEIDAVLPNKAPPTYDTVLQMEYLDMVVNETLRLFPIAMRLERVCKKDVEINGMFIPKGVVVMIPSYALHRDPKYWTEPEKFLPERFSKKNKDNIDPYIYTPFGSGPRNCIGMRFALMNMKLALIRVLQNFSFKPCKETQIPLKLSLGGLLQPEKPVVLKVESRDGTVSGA
Description: as §1

CYP2C9 = biological target: T4, CYP2C9 (Homo sapiens, UniProt P11712); assay: CYP inhibition assay (Vivid CYP450 screening kit); type: in vitro ADME; conditions: 10 μM compound
T4 construct: purchased Invitrogen, Madison, WI, USA
T4 sequence (P11712 whole entry): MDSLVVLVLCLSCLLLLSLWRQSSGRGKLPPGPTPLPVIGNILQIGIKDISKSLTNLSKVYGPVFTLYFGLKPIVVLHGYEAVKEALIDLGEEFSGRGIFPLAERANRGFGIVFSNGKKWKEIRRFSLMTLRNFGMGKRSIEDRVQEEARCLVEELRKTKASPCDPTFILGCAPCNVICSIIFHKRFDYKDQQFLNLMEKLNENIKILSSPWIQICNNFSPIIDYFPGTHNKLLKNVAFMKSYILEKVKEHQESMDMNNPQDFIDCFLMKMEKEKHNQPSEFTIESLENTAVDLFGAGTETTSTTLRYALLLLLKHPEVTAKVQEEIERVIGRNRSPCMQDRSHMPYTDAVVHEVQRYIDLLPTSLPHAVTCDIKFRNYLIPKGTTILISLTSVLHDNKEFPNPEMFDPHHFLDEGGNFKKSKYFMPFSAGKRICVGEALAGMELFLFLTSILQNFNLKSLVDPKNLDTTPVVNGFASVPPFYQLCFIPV
Description: as §1

Structure (SMILES)	remaining at 0.5 h, 1 µM [2] [%]	CYP450 (% remaining Activity at 10 μM) CYP1A2 (CYP1A2) [%]	CYP450 (% remaining Activity at 10 μM) CYP2D6 (CYP2D6) [%]	CYP450 (% remaining Activity at 10 μM) CYP3A4 (CYP3A4) [%]	CYP450 (% remaining Activity at 10 μM) CYP2C9 (CYP2C9) [%]	viability at 24 h, 5 µM [1] [%]
CCOc1ccc(-n2c(SCC(=O)NC3CCN(C)CC3)nc3sc4c(c3c2=O)CCN(C(C)=O)C4)cc1 [Compound 30]	99.1	119.7	118.5	31.0	93.0	98
CCOc1ccc(-n2c(SCC(=O)NCc3ccccc3)nc3sc4c(c3c2=O)CCN(C(C)=O)C4)cc1 [Compound 31]	32.7	143.1	88.1	18.3	51.1	109
CCOc1ccc(-n2c(SCC(=O)N3CCN(c4ccccc4)CC3)nc3sc4c(c3c2=O)CCN(C(C)=O)C4)cc1 [Compound 44]	15.3	92.0	117.3	72.2	84.4	97
CCOc1ccc(-n2c(SCC(=O)N(C)Cc3ccccc3)nc3sc4c(c3c2=O)CCN(C)C4)cc1 [Compound 50]	73.1	97.3	30.0	36.5	66.4	95

More lines, main results first:

remaining at 0.5 h, 1 µM [2] [%]	CYP450 (% remaining Activity at 10 μM) CYP1A2 (CYP1A2) [%]	CYP450 (% remaining Activity at 10 μM) CYP2D6 (CYP2D6) [%]	CYP450 (% remaining Activity at 10 μM) CYP3A4 (CYP3A4) [%]	CYP450 (% remaining Activity at 10 μM) CYP2C9 (CYP2C9) [%]	Structure (SMILES)	viability at 24 h, 5 µM [1] [%]
49.6	69.0	83.3	69.9	72.5	CCOc1ccc(-n2c(SCC(=O)Nc3ccc(OC)c(OC)c3)nc3sc4c(c3c2=O)CCN(C(C)=O)C4)cc1 [Compound 7]	95
87.9	95.3	43.1	28.1	99.6	CCOc1ccc(-n2c(SCC(=O)NCc3ccccc3)nc3sc4c(c3c2=O)CCN(C)C4)cc1 [Compound 49]	99
